Test results: patent publication US9790563B2, “Method for treating liver cancer” (priority 2014, dated 2017)

Columns and labels:
ErbB3 in Hep3Bx cells = assay: siRNA silencing of ErbB3 (FIG. 12a); format: cell-based
Experimental: (§1) 5 μL of 20 μM siRNA is mixed with 1 μL of the transfection reagent and 100 μL of the medium without FBS. 30 minutes later, the siRNA-containing mixture is added into the medium-discarded Hep3Bx cells with a final volume of 1 mL. After incubating for 5 hours, the FBS containing medium as added to a final volume of 2 mL. The following experiment is performed 4-day posttransfection.
(§2) ErbB3-specific siRNA with a sequence as set forth in SEQ ID NO: 13 is used to silence expression of ErbB3 in the Hep3Bx cells. The control siRNA with a sequence as set forth in SEQ ID NO: 10 is used as a control.

[1] = tested on: vector-transfected Hep3B cells (group D1); assay: cell viability after lapatinib treatment (FIG. 4b); format: cell-based
[2] = tested on: ErbB3-transfected Hep3B cells (group K2); assay: cell numbers by light and fluorescence microscopy (FIG. 11b-d); format: cell-based; settings: 120 hours
Description: That is, pDSRed vector is used as a control (group K1) and the ErbB3 protein-expressing plasmid constructed with primers with sequences set forth in SEQ ID NOs. 11 and 12 is used as the group K2.
Cell numbers of the vector- or ErbB3-transfected Hep3B cells are monitored using a fluorescence microscope with an excitation wavelength of 535 nm. […] The cell number of the lapatinib-treated vector-transfected Hep3B cells divides by the cell number of the DMSO-treated vector-transfected Hep3B cells and the cell number of the lapatinib-treated ErbB3-transfected Hep3B cells divides by the cell number of the DMSO-treated ErbB3-transfected Hep3B cells. As a result, after lapatinib treatment for 120 hours, the quantitative cell viability of ErbB3-transfected Hep3B cells is merely smaller than 20%. That is, ErbB3 transfection induces […] of Hep3B cells to lapatinib.

[3] = tested on: vector-transfected Hep3B cells (group F1); assay: crystal violet assay (FIG. 6c); settings: 1 μM, 120 hours
Description: (§3) The genome of HBV contains 4 known genes including genes C, X, P and S. To define the role of HBx in cytotoxicity of lapatinib to liver cancer, the plasmids being thankful presents from Dr. Seishi Murakami (J. Virology, 79 (9): 5548-5556, 2005) are used to transiently transfect into the Hep3B cells in the trial (F). […] The plasmid containing an ochre termination signal (CAA to UAA) after codon 7 (at codon 8) in the HBx ORF is used as the group F3. The plasmids are transiently transfected into the Hep3B and HepG2 cells as described above.
(§4) The transfected Hep3B and HepG2 cells are treated with DMSO or 1 μM of lapatinib for 120 hours and the DMSO- or lapatinib-treated cells are analyzed by crystal violet assay.

[4] = tested on: HBx-minus mutant-transfected Hep3B cells (group F3); assay: crystal violet assay (FIG. 6c); settings: 1 μM, 120 hours
Description: as §3, §4

[5] = tested on: vector-transfected HepG2 cells (group F1); assay: crystal violet assay (FIG. 6c); settings: 1 μM, 120 hours
Description: as §3, §4

[6] = tested on: wild-type HBV genome-transfected HepG2 cells (group F2); assay: crystal violet assay (FIG. 6c); settings: 1 μM, 120 hours
Description: as §3, §4

[7] = tested on: wild-type HBV genome-transfected Hep3B cells (group F2); assay: crystal violet assay (FIG. 6c); settings: 1 μM, 120 hours
Description: as §3, §4

[8] = tested on: HBx-minus mutant-transfected HepG2 cells (group F3); assay: crystal violet assay (FIG. 6c); settings: 1 μM, 120 hours
Description: as §3, §4

[9] = tested on: HBx-virus transduced Hep3B cells (group E2); assay: cell viability after lapatinib treatment (FIG. 5b); format: cell-based
Description: (§5) In the trial (D) and (E), HBx is introduced into the Hep3B cells via transient transfection and virus transduction, respectively. Cytotoxicity of lapatinib to the HBx-transfected or HBx-virus transduced Hep3B cells is further monitored by the crystal violet assay.
(§6) That is, pDEST-V5 vector is used as a control (group E1) and the HBx plasmid expressing HBx expression protein constructed with primers with sequences set forth in SEQ ID NOs. 7 and 8 is used as the group E2.
(§7) The plasmids are virus transduced into the Hep3B cells as the following procedure: the Hep3B cells are inoculated in 3.5-cm petri dishes with concentration of 2×10^5 cells per petri dish. After incubating for 24 hours, virus with 100 MOI is used to transduce the plasmids into the cultured Hep3B cells. Fresh media are replaced after 16 hours and the following experiments are performed 4 days later.

[10] = tested on: vector-virus transduced Hep3B cells (group E1); assay: cell viability after lapatinib treatment (FIG. 5b); format: cell-based
Description: as §5, §6, §7

[11] = tested on: myc-HBx-transfected Hep3B cells (group D2); assay: cell viability after lapatinib treatment (FIG. 4b); format: cell-based
Description: as §5
That is, pcDNA6/myc-His A vector is used as a control (group D1) and the C-terminal myc-tagged HBx plasmid expressing myc-HBx expression protein constructed with primers with sequences set forth in SEQ ID NOs. 5 and 6 is used as the group D2.
(§8) The plasmids are transfected into the Hep3B cells as the following procedure: 1 μg of the plasmids are mixed with 1 μL of TransIT2020 transfection reagent, and the mixture is incubated with the fresh medium without FBS at room temperature for 30 minutes to obtain the vector-transfected Hep3B cells (group D1) and the myc-HBx-transfected Hep3B cells (group D2).

[12] = tested on: vector-transfected Hep3B cells (group D1); assay: crystal violet staining (FIG. 4c); format: cell-based; settings: 1 μM, 120 hours
Hep3Bx cells [13] = assay: sub-G1 phase arrest by PI flow cytometry; format: cell-based; settings: 120 hours, different concentrations
Experimental: (§9) The Hep3B and Hep3Bx cells are inoculated in 3.5-cm petri dishes, respectively. After the Hep3B and Hep3Bx cells cover 50 to 60% of the 3.5-cm petri dishes, 3 mL of fresh medium with different concentrations of lapatinib is added, followed by incubation at 37° C. for 120 hours. The cultured Hep3B and Hep3Bx cells are resuspended in 3 mL of 75% ethanol in a concentration of 1.5×10^5 cells per mL and fixed at −20° C. for at least 2 hours. Finally, the fixed Hep3B and Hep3Bx cells are mixed with 0.5 mL of PI buffer at 37° C. for 30 minutes. The sub-G1 phase arresting cells with a DNA content less than 2n, which are usually the result of apoptotic DNA fragmentation are detected and measured by a sub-G1 peak in the fluorescence histogram of flow cytometry.

Hep3B cells [14] = assay: sub-G1 phase arrest by PI flow cytometry; format: cell-based; settings: 120 hours, different concentrations
Experimental: as §9

Hep3Bx cells [15] = assay: MTT cytotoxicity assay; format: cell-based; settings: 72 hours, 0-10 μM
Experimental: (§10) In the following trials, liver cancer cells including Hep3B, Hep3Bx, HepG2 and HepG2x cells are used. The Hep3Bx and HepG2x cells, derived from the Hep3B and HepG2 cells, respectively, are cell lines constitutively expressing HBx. All of the liver cancer cells are incubated in a 37° C. incubator. DME/F12 with 10% FBS is used as media for incubating the cell lines. Moreover, lapatinib is dissolved in DMSO with different concentration.
(§11) Cytotoxicity of lapatinib to the Hep3B and Hep3Bx cells is monitored using the MTT 3-(4,5-dimethylthiazol-2-yl)-2,5-diphenyltetrazolium bromide assay. First, the Hep3B and Hep3Bx cells are inoculated in a 96-well pate with 5,000-10,000 cells per well. After incubating at 37° C. for 24 hours, 0, 0.1, 0.5, 1, 5 and 10 μM of lapatinib is added into the medium for further incubation at 37° C. for 72 hours, respectively. 0.025 mL of MTT solution ([…] of MTT dissolved in 1 mL of 1×PBS) is added into 0.1 mL of the medium, followed by incubating at 37° C. for 4 hours. Succinate dehydrogenase, bound to the inner mitochondrial membrane of the living cells, is capable of reducing MTT to its insoluble formazan, which has a purple color. Therefore, after removing the supernatants, 0.1 mL of DMSO is added to dissolve the insoluble formazan into a colored solution.

Hep3B cells [16] = assay: MTT cytotoxicity assay; format: cell-based; settings: 72 hours, 0-10 μM
Experimental: as §10, §11

Hep3Bx cells [17] = assay: Western blotting of cleaved PARP and cleaved Caspase-3; format: cell-based; settings: higher concentration
Experimental: (§12) Western blotting is performed with anti-PARP antibody (1: 1,000, purchased from Cell Signaling) and anti-Caspase-3 antibody (1: 1,000, purchased from Cell Signaling). The anti-Actin antibody (1: 10,000, purchased from Sigma) is used as an internal control.

Hep3B cells [18] = assay: as above; format: cell-based
Experimental: as §12

[19] = tested on: ErbB3-specific siRNA-treated Hep3Bx cells; assay: crystal violet staining (FIG. 12b); format: cell-based; settings: ErbB3-specific siRNA-treated Hep3Bx cells compared to control siRNA-treated, 120 hours
Experimental: as §1, §2

liver cancers = settings: clinical trial; cited from earlier work
[20] = tested on: myc-HBx-transfected Hep3B cells (group D2); assay: crystal violet staining (FIG. 4c); format: cell-based; settings: 1 μM, 120 hours
Experimental: as §8
Moreover, 1×10^5 cells of the vector-transfected Hep3B cells (group D1) and the myc-HBx-transfected Hep3B cells (group D2) are further treated with 1 μM of lapatinib. Also, DMSO is used to treat the vector-transfected Hep3B cells (group D1) and the myc-HBx-transfected Hep3B cells (group D2) as a solvent control. After culturing at 37° C. for 120 hours, the supernatants are removed and 10 mg/mL of crystal violet solution dissolving in 30% ethanol is added to the cultured Hep3B cells for 15 to 30 minutes. Crystal violet solution can stain the nuclei of the living cells adhering to the petri dishes.

HBx in Hep3Bx cells = assay: siRNA silencing of HBx, Western blotting (FIG. 9e); format: cell-based; settings: 4-day posttransfection
Experimental: HBx-specific siRNA with a sequence as set forth in SEQ ID NO: 9 and a control siRNA with a sequence as set forth in SEQ ID NO: 10 are used to further confirm the relationship between HBx and ErbB3 in the Hep3Bx cells.
as §1

ErbB3-specific siRNA: ErbB3-specific siRNA with a sequence as set forth in SEQ ID NO: 13 (GCGATGCTGAGAACCAATA; listed as DNA, chemistry not given here)
mRNA level of ErbB3 (ErbB3 in Hep3Bx cells): decreases mRNA level of ErbB3 | protein level of ErbB3 (ErbB3 in Hep3Bx cells): decreased protein level of ErbB3

CS(=O)(=O)CCNCc1ccc(-c2ccc3ncnc(Nc4ccc(OCc5cccc(F)c5)c(Cl)c4)c3c2)o1 [lapatinib]
concentration at which lapatinib shows cytotoxicity [1]: 5000 nM | cell numbers (light microscopy) ([2]; ErbB3-transfected Hep3B cells (group K2), in comparison to vector-transfected cells): reduction of cell numbers | quantitative cell viability ([2]; ErbB3-transfected Hep3B cells, lapatinib-treated cell number divided by DMSO-treated cell number, fluorescence microscope): smaller than 20% | cytotoxicity (crystal violet assay) [3]: no cytotoxicity | cytotoxicity (crystal violet assay) [4]: no cytotoxicity | cytotoxicity (crystal violet assay) [5]: slight cytotoxicity | cytotoxicity (crystal violet assay) [6]: significant cytotoxicity | cytotoxicity (crystal violet assay) [7]: obvious cytotoxicity | cytotoxicity (crystal violet assay) [8]: slight cytotoxicity | cells survival [9]: about 60% | cytotoxicity [9]: significant cytotoxicity | cytotoxicity [10]: no cytotoxicity | concentration at which lapatinib shows cytotoxicity [11]: 1000 nM | cytotoxicity (crystal violet staining) [12]: slight cytotoxicity | sub-G1 phase arrest (Hep3Bx cells [13]): the higher the treating concentration is, the more sub-G1 phase arresting cells are observed | sub-G1 phase arrest (Hep3B cells [14]): does not trigger sub-G1 phase arrest | lapatinib concentration at which cells show intolerance (Hep3Bx cells [15]): more than 0.1 μM | lapatinib concentration at which cells show intolerance (Hep3B cells [16]): more than 5 μM | level of cleaved PARP and cleaved Caspase-3 (Hep3Bx cells [17]): higher level of cleaved PARP and cleaved Caspase-3 | level of cleaved PARP and cleaved Caspase-3 (Hep3B cells [18]): does not increase the level of cleaved PARP and cleaved Caspase-3 | tolerance to lapatinib (crystal violet staining) [19]: intolerance to lapatinib | effectiveness in patients with liver cancers (liver cancers): effective for only part of patients with liver cancers | cytotoxicity (crystal violet staining) [20]: significant cytotoxicity

HBx-specific siRNA: HBx-specific siRNA with a sequence as set forth in SEQ ID NO: 9 (GGTTAAAGGTCTTTGTATT; listed as DNA, chemistry not given here)
protein level of ErbB3 (HBx in Hep3Bx cells): decreased protein level of ErbB3 | protein level of HBx (HBx in Hep3Bx cells): decreases protein level of HBx
